≈ marks a conversion by molar mass, not a printed value.
Columns and labels:
[1] = system: Pseudoperonospora cubensis; assay: whole plant or invertebrate; assay type: in vivo; settings: in Cucumis sativus, 168 h
[2] = system: Phytophthora capsici; assay: In-vitro plant fungicide test, PHY; assay type: cell-based; settings: read-out: % Control; for inhibition of growth at 25 ppm: rate 25 PPM; for inhibition of growth at 50 ppm: rate 50 PPM
[3] = system: Rhizoctonia solani; assay: In-vitro plant fungicide test, RHI; assay type: cell-based; settings: read-out: % Control; for inhibition of growth at 25 ppm: rate 25 PPM; for inhibition of growth at 50 ppm: rate 50 PPM
[4] = system: Erysiphe graminis (f. sp. tritici); assay: whole plant or invertebrate; assay type: in vivo; settings: Blumeria graminis
[5] = system: Puccinia recondita (f. sp. tritici Races PKB and PLD); assay: whole plant or invertebrate; assay type: in vivo; settings: 240 h
[6] = system: Escherichia coli; assay: MIC, broth two-fold serial dilution test, Ecol; assay type: cell-based; settings: read-out: Minimum Inhibitory Concentration (MIC)
Experimental: (§1) A minimum inhibitory concentration (MIC) value is obtained using a broth, two-fold serial dilution test performed as follows: […] A volume of the stock solution is dispensed into culture media to give an initial starting test concentration of 500 ppm compound. The test is carried out by adding and equal volume of broth to each vessel in the dilution series, except for the first vessel. The first vessel contains twice the volume of broth plus the initial concentration of test compound. One half of the broth from the first vessel is transferred to the second vessel. After being mixed, one half the resulting volume is removed from the second vessel and transferred to the third vessel. The entire cycle is repeated sufficiently to give a series of concentrations amounting to 500, 250, 125, 63, 31, 16, 8, and 4 ppm (or 100, 50, 25, 12.5, 6.2, 3.1, 1.6, and 0.8), respectively. Each vessel is then inoculated with a cell suspension of the appropriate test organism. Bacteria are grown in both and fungi on agar slats for a time and at a temperature appropriate to the species being tested. At the end of the growth period, the broth is vortexed to disperse the cells. In the case of fungi, the pores are harvested by pipetting water onto the slant and dislodging the spores with a sterile loop. The cell/spore suspension is standardized by controlling incubation time, temperature, and the volume of the diluent. The suspension is then used to inoculate the vessels containing the broth compound. The vessels are then incubated at the appropriate temperature. After the incubation, the vessels are examined for growth/no growth. The minimum inhibitory concentration (MIC) is defined as the lowest concentration of compound that results in complete inhibition of growth of the test organism.

[7] = system: Aureobasidium pullulans; assay: MIC, broth two-fold serial dilution test, Apul; assay type: cell-based; settings: read-out: Minimum Inhibitory Concentration (MIC)
Experimental: as §1

[8] = system: Septoria nodorum; assay: In-vitro plant fungicide test, SEP; assay type: cell-based; settings: Parastagonospora nodorum, read-out: % Control; for inhibition of growth at 50 ppm: rate 50 PPM
[9] = system: Staphylococcus aureus; assay: MIC, broth two-fold serial dilution test, Saur; assay type: cell-based; settings: read-out: Minimum Inhibitory Concentration (MIC)
Experimental: as §1

[10] = system: Xanthomonas campestris; assay: In-vitro plant fungicide test, XAN; assay type: cell-based; settings: XAN, read-out: % Control; for inhibition of growth at 25 ppm: rate 25 PPM; for inhibition of growth at 50 ppm: rate 50 PPM
[11] = system: Pseudomonas fluorescens; assay: MIC, broth two-fold serial dilution test, Psfl; assay type: cell-based; settings: read-out: Minimum Inhibitory Concentration (MIC)
Experimental: as §1

[12] = system: Botrytis cinerea; assay: In-vitro plant fungicide test, BOC; settings: read-out: % Control
[13] = system: Cochliobolus sativus; assay: In-vitro plant fungicide test, HEL; assay type: cell-based; settings: Bipolaris sorokiniana, read-out: % Control; for inhibition of growth at 25 ppm: rate 25 PPM; for inhibition of growth at 50 ppm: rate 50 PPM
[14] = system: Phytophthora infestans; assay: whole plant or invertebrate; assay type: in vivo; settings: in Solanum lycopersicum, 96 h, read-out: % Control
[15] = system: Pseudomonas aerugenosa; assay: MIC, broth two-fold serial dilution test, Psae; assay type: cell-based; settings: read-out: Minimum Inhibitory Concentration (MIC)
Experimental: as §1

[16] = system: Piricularia oryzae; assay: whole plant or invertebrate; assay type: in vivo; settings: Pyricularia oryzae, 192 h, read-out: % Control
[17] = system: Pythium ultimum; assay: In-vitro plant fungicide test, PYU; assay type: cell-based; settings: Globisporangium ultimum, read-out: % Control; for inhibition of growth at 25 ppm: rate 25 PPM; for inhibition of growth at 50 ppm: rate 50 PPM
[18] = system: Fusarium roseum; assay: microbe, parasite or virus in culture; settings: Fusarium sambucinum, read-out: % Control
[19] = system: Aspergillus niger; assay: MIC, broth two-fold serial dilution test, Anig; assay type: cell-based; settings: read-out: Minimum Inhibitory Concentration (MIC)
Experimental: as §1

[20] = system: Piricularia oryzae; assay: microbe, parasite or virus in culture; assay type: cell-based; settings: read-out: % Control
[21] = system: Septoria glume blotch of wheat; assay: whole plant or invertebrate; assay type: in vivo; settings: Triticum aestivum

COC(=O)N(CC#CI)N=Cc1ccccc1 [Compound 3, N'-Methoxycarbonyl-N'-3-iodopropargyl benzaldehyde hyrazone]
pest or weed control at 200 ppm [1]: 99%
inhibition of growth at 25 ppm [2]: 75%
inhibition of growth at 50 ppm [2]: 100%
inhibition of growth at 25 ppm [3]: 100%
inhibition of growth at 50 ppm [3]: 100%
pest or weed control at 200 ppm [4]: 50%
pest or weed control at 200 ppm [5]: 50%
MIC [6]: > 500 µg/mL
MIC [7]: < 4 µg/mL
inhibition of growth at 50 ppm [8]: 75%
MIC [9]: 125 µg/mL (≈ 365 µM)
inhibition of growth at 25 ppm [10]: 0%
inhibition of growth at 50 ppm [10]: 0%
MIC [11]: > 500 µg/mL
inhibition of growth at 25 ppm [12]: 0%
inhibition of growth at 50 ppm [12]: 0%
inhibition of growth at 25 ppm [13]: 0%
inhibition of growth at 50 ppm [13]: 0%
pest or weed control at 200 ppm [14]: 80%
MIC [15]: 250 µg/mL (≈ 731 µM)
pest or weed control at 200 ppm [16]: 90%
inhibition of growth at 25 ppm [17]: 75%
inhibition of growth at 50 ppm [17]: 100%
inhibition of growth at 25 ppm [18]: 75%
inhibition of growth at 50 ppm [18]: 100%
MIC [19]: < 4 µg/mL
inhibition of growth at 25 ppm [20]: 0%
inhibition of growth at 50 ppm [20]: 95%

COC(=O)N(CC#CI)N=Cc1ccc(Cl)cc1 [Compound 5, N'-Methoxycarbonyl-N'-3-iodopropargyl 4-chlorobenzaldehyde hydrazone]
pest or weed control at 200 ppm [1]: 99%
inhibition of growth at 25 ppm [2]: 50%
inhibition of growth at 25 ppm [3]: 75%
pest or weed control at 200 ppm [4]: 0%
pest or weed control at 200 ppm [5]: 80%
MIC [6]: 125 µg/mL (≈ 332 µM)
MIC [7]: < 4 µg/mL
MIC [9]: 8 µg/mL (≈ 21.2 µM)
inhibition of growth at 25 ppm [10]: 0%
MIC [11]: 125 µg/mL (≈ 332 µM)
inhibition of growth at 25 ppm [12]: 0%
inhibition of growth at 25 ppm [13]: 100%
pest or weed control at 200 ppm [14]: 90%
MIC [15]: 16 µg/mL (≈ 42.5 µM)
pest or weed control at 200 ppm [16]: 95%
inhibition of growth at 25 ppm [17]: 50%
pest or weed control at 200 ppm [21]: 0%
inhibition of growth at 25 ppm [18]: 95%
MIC [19]: < 4 µg/mL
inhibition of growth at 25 ppm [20]: 100%

COC(=O)N(CC#CI)N=Cc1ccc(Cl)c(Cl)c1 [Compound 11, N'-Methoxycarbonyl-N'-3-iodopropargyl 3,4-dichlorobenzaldehyde hydrazone]
pest or weed control at 200 ppm [1]: 95%
inhibition of growth at 50 ppm [2]: 90%
inhibition of growth at 50 ppm [3]: 100%
pest or weed control at 200 ppm [4]: 0%
MIC [6]: > 500 µg/mL
MIC [7]: < 4 µg/mL
inhibition of growth at 50 ppm [8]: 90%
MIC [9]: 8 µg/mL (≈ 19.5 µM)
inhibition of growth at 50 ppm [10]: 0%
MIC [11]: > 500 µg/mL
inhibition of growth at 50 ppm [12]: 50%
inhibition of growth at 50 ppm [13]: 100%
pest or weed control at 200 ppm [14]: 80%
MIC [15]: > 500 µg/mL
pest or weed control at 200 ppm [16]: 90%
inhibition of growth at 50 ppm [17]: 0%
pest or weed control at 200 ppm [21]: 0%
inhibition of growth at 50 ppm [18]: 100%
MIC [19]: < 4 µg/mL
inhibition of growth at 50 ppm [20]: 100%

COC(=O)N(CC#CI)N=Cc1ccc(C#N)cc1 [Compound 9, N'-Methoxycarbonyl-N'-3-iodopropargyl 4-cyanobenzaldehyde hydrazone]
pest or weed control at 200 ppm [1]: 85%
inhibition of growth at 50 ppm [2]: 95%
inhibition of growth at 50 ppm [3]: 100%
pest or weed control at 200 ppm [4]: 0%
pest or weed control at 200 ppm [5]: 0%
MIC [6]: > 500 µg/mL
inhibition of growth at 50 ppm [8]: 100%
MIC [9]: > 500 µg/mL
inhibition of growth at 50 ppm [10]: 0%
MIC [11]: > 500 µg/mL
inhibition of growth at 50 ppm [12]: 50%
inhibition of growth at 50 ppm [13]: 100%
pest or weed control at 200 ppm [14]: 0%
MIC [15]: > 500 µg/mL
pest or weed control at 200 ppm [16]: 0%
inhibition of growth at 50 ppm [17]: 100%
pest or weed control at 200 ppm [21]: 0%
inhibition of growth at 50 ppm [18]: 100%
MIC [19]: > 250 µg/mL
inhibition of growth at 50 ppm [20]: 100%

O=CN(CC#CBr)N=Cc1ccc(Cl)cc1 [Compound 2, N'-Formyl-N'-3-bromopropargyl 4-chlorobenzaldehyde hydrazone]
inhibition of growth at 25 ppm [2]: 75%
inhibition of growth at 25 ppm [3]: 0%
pest or weed control at 600 ppm [4]: 0%
pest or weed control at 600 ppm [5]: 0%
MIC [6]: > 500 µg/mL
MIC [7]: 63 µg/mL (≈ 210 µM)
MIC [9]: > 500 µg/mL
inhibition of growth at 25 ppm [10]: 0%
MIC [11]: > 500 µg/mL
inhibition of growth at 25 ppm [12]: 0%
inhibition of growth at 25 ppm [13]: 0%
pest or weed control at 600 ppm [14]: 50%
MIC [15]: 250 µg/mL (≈ 835 µM)
inhibition of growth at 25 ppm [17]: 0%
inhibition of growth at 25 ppm [18]: 0%
MIC [19]: > 500 µg/mL
inhibition of growth at 25 ppm [20]: 50%

O=C(c1ccccc1)N(CC#CI)N=Cc1ccccc1 [Compound 6, N'-Benzoyl-N'-3-iodopropargyl benzaldehyde hydrazone]
inhibition of growth at 25 ppm [2]: 100%
inhibition of growth at 25 ppm [3]: 0%
MIC [6]: 50 µg/mL (≈ 129 µM)
MIC [7]: 3 µg/mL (≈ 7.73 µM)
inhibition of growth at 25 ppm ([8]; rate 25 PPM): 100%
MIC [9]: 50 µg/mL (≈ 129 µM)
inhibition of growth at 25 ppm [10]: 0%
MIC [11]: 50 µg/mL (≈ 129 µM)
inhibition of growth at 25 ppm [12]: 0%
inhibition of growth at 25 ppm [13]: 0%
MIC [15]: 25 µg/mL (≈ 64.4 µM)
inhibition of growth at 25 ppm [17]: 100%
inhibition of growth at 25 ppm [18]: 0%
MIC [19]: 6 µg/mL (≈ 15.5 µM)
inhibition of growth at 25 ppm [20]: 100%

COC(=O)N(CC#CI)N=Cc1ccc(C)cc1 [Compound 4, N'-Methoxycarbonyl-N'-3-iodopropargyl 4-methylbenzaldehyde hydrazone]
pest or weed control at 200 ppm [1]: 95%
pest or weed control at 200 ppm [4]: 0%
pest or weed control at 200 ppm [5]: 50%
MIC [6]: 250 µg/mL (≈ 702 µM)
MIC [7]: 8 µg/mL (≈ 22.5 µM)
MIC [9]: 16 µg/mL (≈ 44.9 µM)
MIC [11]: 125 µg/mL (≈ 351 µM)
pest or weed control at 200 ppm [14]: 80%
MIC [15]: 125 µg/mL (≈ 351 µM)
pest or weed control at 200 ppm [16]: 90%
pest or weed control at 200 ppm [21]: 50%
MIC [19]: < 4 µg/mL

O=C(c1ccccc1)N(CC#CI)N=Cc1cccc([N+](=O)[O-])c1 [Compound 12, N'-Benzoyl-N'-3-iodopropargyl 3-nitrobenzaldehyde hydrazone]
inhibition of growth at 50 ppm [2]: 0%
inhibition of growth at 50 ppm [3]: 95%
MIC [6]: > 100 µg/mL
MIC [7]: 100 µg/mL (≈ 231 µM)
inhibition of growth at 50 ppm [8]: 0%
MIC [9]: > 100 µg/mL
inhibition of growth at 50 ppm [10]: 0%
MIC [11]: > 100 µg/mL
inhibition of growth at 50 ppm [12]: 0%
inhibition of growth at 50 ppm [13]: 0%
MIC [15]: > 100 µg/mL
inhibition of growth at 50 ppm [17]: 0%
inhibition of growth at 50 ppm [18]: 0%
MIC [19]: > 100 µg/mL
inhibition of growth at 50 ppm [20]: 100%

COC(=O)N(CC#CBr)N=Cc1ccc(Cl)cc1 [Compound 1, N'-Methoxycarbonyl-N'-3-bromopropargyl 4-chlorobenzaldehyde hydrazone]
inhibition of growth at 25 ppm [2]: 0%
inhibition of growth at 25 ppm [3]: 0%
MIC [6]: > 500 µg/mL
MIC [7]: 63 µg/mL (≈ 191 µM)
MIC [9]: > 500 µg/mL
inhibition of growth at 25 ppm [10]: 0%
MIC [11]: > 500 µg/mL
inhibition of growth at 25 ppm [12]: 0%
inhibition of growth at 25 ppm [13]: 0%
MIC [15]: 250 µg/mL (≈ 759 µM)
inhibition of growth at 25 ppm [17]: 0%
inhibition of growth at 25 ppm [18]: 0%
MIC [19]: > 500 µg/mL
inhibition of growth at 25 ppm [20]: 0%

Reference: patent US5112382A, “Halopropargyl compounds, compositions, uses and processes of preparation” (Rohm and Haas Company, priority 1990, dated 1992)
